Values quoted from earlier work as cited in US8673972B2, “Human papilloma virus as predictor of cancer prognosis” (Foundation Medicine, Inc., priority 2012, dated 2014).

Legend:
Settings in all cases: stated in words only
CDK2 = CDK2 (Homo sapiens, UniProt P24941)
CDK1 = CDK1 (Homo sapiens, UniProt P06493)
CDK4 = CDK4 (Homo sapiens, UniProt P11802)
CDK9 = CDK9 (Homo sapiens, UniProt P50750)
CDK7 = CDK7 (Homo sapiens, UniProt P50613)
Chain of CDK7 (P50613 whole entry): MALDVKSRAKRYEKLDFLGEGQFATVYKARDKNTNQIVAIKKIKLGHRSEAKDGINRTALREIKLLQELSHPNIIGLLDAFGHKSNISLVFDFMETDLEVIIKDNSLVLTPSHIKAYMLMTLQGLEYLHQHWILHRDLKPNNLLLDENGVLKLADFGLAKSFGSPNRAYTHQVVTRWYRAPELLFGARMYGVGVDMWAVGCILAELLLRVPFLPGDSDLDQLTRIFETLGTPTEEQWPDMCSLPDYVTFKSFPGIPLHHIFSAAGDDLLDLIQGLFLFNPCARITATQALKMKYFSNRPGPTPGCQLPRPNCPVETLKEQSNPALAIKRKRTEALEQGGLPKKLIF
Chain of CDK7 (P51946 whole entry partner): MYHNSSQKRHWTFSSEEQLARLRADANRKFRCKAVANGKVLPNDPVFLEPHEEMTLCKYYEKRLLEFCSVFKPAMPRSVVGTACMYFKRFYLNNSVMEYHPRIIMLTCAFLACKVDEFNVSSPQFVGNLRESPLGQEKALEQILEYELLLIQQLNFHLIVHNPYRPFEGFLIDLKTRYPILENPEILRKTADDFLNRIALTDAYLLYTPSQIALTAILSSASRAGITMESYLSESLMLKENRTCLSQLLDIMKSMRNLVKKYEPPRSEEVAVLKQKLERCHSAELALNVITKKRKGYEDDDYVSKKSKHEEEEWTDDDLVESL
Chain of CDK7 (P51948 whole entry partner): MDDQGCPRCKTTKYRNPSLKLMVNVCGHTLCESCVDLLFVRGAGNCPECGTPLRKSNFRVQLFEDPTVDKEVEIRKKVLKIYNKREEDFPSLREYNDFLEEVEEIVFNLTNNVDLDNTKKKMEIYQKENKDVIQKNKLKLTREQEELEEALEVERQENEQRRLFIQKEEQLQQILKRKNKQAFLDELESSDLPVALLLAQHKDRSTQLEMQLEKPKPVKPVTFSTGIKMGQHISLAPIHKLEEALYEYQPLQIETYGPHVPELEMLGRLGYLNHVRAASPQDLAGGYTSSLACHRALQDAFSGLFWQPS

Chain of CDK9 (P50750 whole entry): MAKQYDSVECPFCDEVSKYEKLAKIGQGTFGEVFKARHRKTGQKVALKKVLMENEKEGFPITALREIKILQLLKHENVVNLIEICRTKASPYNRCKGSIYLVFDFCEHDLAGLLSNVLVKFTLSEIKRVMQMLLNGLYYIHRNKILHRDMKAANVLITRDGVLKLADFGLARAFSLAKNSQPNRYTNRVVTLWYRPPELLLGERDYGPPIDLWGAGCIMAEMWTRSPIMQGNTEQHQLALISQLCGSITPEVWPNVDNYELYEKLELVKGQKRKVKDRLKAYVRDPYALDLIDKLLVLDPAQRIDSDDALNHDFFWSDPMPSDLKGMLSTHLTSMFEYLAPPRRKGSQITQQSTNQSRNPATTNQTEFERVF
Chain of CDK9 (O60563 whole entry partner): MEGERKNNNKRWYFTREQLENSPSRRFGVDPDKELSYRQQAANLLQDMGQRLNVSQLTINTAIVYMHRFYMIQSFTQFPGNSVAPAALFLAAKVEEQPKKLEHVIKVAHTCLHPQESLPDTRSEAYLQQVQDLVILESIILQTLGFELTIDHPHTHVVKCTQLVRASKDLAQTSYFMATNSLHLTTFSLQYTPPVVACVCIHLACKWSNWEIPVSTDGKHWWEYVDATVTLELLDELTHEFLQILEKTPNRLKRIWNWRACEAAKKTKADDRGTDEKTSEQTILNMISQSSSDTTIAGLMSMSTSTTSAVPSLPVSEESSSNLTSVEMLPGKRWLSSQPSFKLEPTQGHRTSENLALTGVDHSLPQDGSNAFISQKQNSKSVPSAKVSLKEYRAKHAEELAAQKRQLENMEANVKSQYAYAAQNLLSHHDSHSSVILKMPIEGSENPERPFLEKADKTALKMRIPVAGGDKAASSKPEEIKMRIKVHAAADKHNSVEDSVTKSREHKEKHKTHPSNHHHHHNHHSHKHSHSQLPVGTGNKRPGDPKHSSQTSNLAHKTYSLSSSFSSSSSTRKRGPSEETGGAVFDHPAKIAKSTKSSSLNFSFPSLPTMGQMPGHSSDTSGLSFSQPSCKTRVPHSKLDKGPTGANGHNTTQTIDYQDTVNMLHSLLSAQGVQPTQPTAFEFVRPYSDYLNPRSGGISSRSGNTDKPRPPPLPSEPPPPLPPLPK
Chain of CDK1 (P06493 whole entry): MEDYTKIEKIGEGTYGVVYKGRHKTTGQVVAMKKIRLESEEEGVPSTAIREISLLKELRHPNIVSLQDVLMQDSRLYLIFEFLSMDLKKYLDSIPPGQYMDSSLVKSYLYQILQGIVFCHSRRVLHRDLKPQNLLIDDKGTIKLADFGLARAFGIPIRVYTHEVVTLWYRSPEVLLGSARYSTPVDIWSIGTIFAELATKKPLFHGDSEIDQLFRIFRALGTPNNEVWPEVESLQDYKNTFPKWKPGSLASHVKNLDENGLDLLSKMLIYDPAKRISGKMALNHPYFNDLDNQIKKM
Chain of CDK1 (P14635 whole entry partner): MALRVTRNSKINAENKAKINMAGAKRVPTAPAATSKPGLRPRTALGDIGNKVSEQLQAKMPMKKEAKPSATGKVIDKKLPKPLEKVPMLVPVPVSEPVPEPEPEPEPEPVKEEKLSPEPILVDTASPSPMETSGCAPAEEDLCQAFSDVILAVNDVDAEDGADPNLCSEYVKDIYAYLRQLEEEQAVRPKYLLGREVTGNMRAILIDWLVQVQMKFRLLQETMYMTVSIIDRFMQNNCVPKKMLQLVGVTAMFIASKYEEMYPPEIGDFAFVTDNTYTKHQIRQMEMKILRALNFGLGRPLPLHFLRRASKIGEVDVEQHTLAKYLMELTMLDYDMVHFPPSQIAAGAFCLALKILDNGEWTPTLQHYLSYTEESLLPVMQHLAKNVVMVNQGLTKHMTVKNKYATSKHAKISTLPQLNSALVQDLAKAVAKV
Chain of CDK4 (P11802 whole entry): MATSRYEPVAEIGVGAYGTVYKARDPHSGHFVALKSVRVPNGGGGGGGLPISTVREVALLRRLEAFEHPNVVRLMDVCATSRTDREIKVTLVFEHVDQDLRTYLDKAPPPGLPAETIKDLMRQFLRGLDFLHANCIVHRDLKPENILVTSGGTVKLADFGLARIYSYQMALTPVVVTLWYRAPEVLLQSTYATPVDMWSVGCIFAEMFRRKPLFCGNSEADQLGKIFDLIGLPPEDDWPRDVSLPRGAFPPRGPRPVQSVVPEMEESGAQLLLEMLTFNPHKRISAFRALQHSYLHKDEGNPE
Chain of CDK4 (P24385 whole entry partner): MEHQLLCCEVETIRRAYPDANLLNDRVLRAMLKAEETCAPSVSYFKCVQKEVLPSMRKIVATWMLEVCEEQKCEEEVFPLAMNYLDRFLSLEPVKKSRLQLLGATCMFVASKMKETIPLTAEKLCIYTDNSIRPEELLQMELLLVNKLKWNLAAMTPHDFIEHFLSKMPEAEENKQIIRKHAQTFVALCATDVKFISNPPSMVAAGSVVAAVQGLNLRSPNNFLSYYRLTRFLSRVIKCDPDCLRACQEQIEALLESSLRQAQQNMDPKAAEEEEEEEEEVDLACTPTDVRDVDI

CC1(C)/C(=C2/C(=O)Nc3ccc(S(N)(=O)=O)cc32)Nc2ccccc21 [ZK-304709, (Z)-3,3-dimethyl-2′-oxo-[2,3′-biindolinylidene]-5′-sulfonamide]
nanomolar range: IC50 CDK2, in words (CDK2) | IC50 CDK1, in words (CDK1) | IC50 CDK4, in words (CDK4) | IC50 CDK9, in words (CDK9) | IC50 CDK7, in words (CDK7)
